In the experiment the test system is S. aureus 6538. The experiment can be described thus: Synergy test, microtiter plate high resolution MIC assay, bacterium. The format is cell-based. The following applies: for SI (calculated synergy index): S. aureus 6538, TSB. An excerpt:
One measure of synergism is the industrially accepted method described by Kull, F. C.; Eisman, P. C.; Sylwestrowicz, H. D. and Mayer, R. L., in Applied Microbiology 9:538-541 (1961), using the ratio determined by the formula: Qa/QA+Qb/QB=Synergy Index (“SI”) wherein: • QA=concentration of compound A (first component) in ppm, acting alone, which produced an end point (MIC of Compound A). • Qa=concentration of compound A in ppm, in the mixture, which produced an end point. • QB=concentration of compound B (second component) in ppm, acting alone, which produced an end point (MIC of Compound B). • Qb=concentration of compound B in ppm, in the mixture, which produced an end point.
When the sum of Qa/QA and Qb/QB is greater than one, antagonism is indicated. […] The lower the SI, the greater the synergy shown by that particular mixture. The minimum inhibitory concentration (MIC) of a microbicide is the lowest concentration tested under a specific set of conditions that prevents the growth of added microorganisms.
Synergy tests were conducted using standard microtiter plate assays with media designed for optimal growth of the test microorganism. Soybean Casein Digest Broth (Tryptic Soy Broth, TSB medium) or minimal salt medium supplemented with 0.2% glucose and 0.1% yeast extract (M9GY medium) was used for testing bacteria; Potato Dextrose Broth (PDB medium) was used for testing yeast and mold. In this method, a wide range of combinations of microbicides was tested by conducting high resolution MIC assays in the presence of various concentrations of MI. High resolution MICs were determined by adding varying amounts of microbicide to one column of a microtitre plate and doing subsequent ten-fold dilutions using an automated liquid handling system to obtain a series of endpoints ranging from 2 ppm to 10,000 ppm active ingredient.

Read-outs that look alike come from different tables or passages of the source.

For `Cn1sccc1=O` [2-methyl-3-isothiazolone, 2-methyl-4-isothiazolin-3-one], the MIC was 200 µg/mL (Staphylococcus aureus, 6538, 24 h, read-out: Qa: end-point activity (MIC) of MI in the mixture (MI alone, QA, where Qb = 0)); 300 µg/mL (Staphylococcus aureus, 6538, 48 h, read-out: MIC of component acting alone (QA / QB)); 300 µg/mL (Staphylococcus aureus, 6538, 48 h, read-out: Qa: end-point activity (MIC) of MI in the mixture (MI alone, QA, where Qb = 0)); 300 µg/mL (Staphylococcus aureus, 6538, 72 h, read-out: MIC of component acting alone (QA / QB)). Further, the “SI (calculated synergy index)” value is, setting by setting: (Table 5, 48 hours) 1.00; (Table 6, 24 hours) 1.00.

Source of the values: patent US7468384B2, “Microbicidal composition” (Rohm and Haas Company, priority 2004, dated 2008).
